Experimental data reported in US9353140B2, “BQC-G, a tumor-selective anti-cancer prodrug” (priority 2009, dated 2016).
Converted amounts (≈) assume the structure as drawn. “And” between values parts separate entries of the source, which are not always exact repeats. Equal values may be shown once. Read-outs that look alike come from different tables or passages of the source.

Columns and labels:
[1] = molecular target: E. coli β-glucuronidase (Escherichia coli, UniProt P05804); details: for Kcat / Km: enzymatic hydrolysis by E. coli β-glucuronidase
Sequence of E. coli β-glucuronidase (P05804 whole entry): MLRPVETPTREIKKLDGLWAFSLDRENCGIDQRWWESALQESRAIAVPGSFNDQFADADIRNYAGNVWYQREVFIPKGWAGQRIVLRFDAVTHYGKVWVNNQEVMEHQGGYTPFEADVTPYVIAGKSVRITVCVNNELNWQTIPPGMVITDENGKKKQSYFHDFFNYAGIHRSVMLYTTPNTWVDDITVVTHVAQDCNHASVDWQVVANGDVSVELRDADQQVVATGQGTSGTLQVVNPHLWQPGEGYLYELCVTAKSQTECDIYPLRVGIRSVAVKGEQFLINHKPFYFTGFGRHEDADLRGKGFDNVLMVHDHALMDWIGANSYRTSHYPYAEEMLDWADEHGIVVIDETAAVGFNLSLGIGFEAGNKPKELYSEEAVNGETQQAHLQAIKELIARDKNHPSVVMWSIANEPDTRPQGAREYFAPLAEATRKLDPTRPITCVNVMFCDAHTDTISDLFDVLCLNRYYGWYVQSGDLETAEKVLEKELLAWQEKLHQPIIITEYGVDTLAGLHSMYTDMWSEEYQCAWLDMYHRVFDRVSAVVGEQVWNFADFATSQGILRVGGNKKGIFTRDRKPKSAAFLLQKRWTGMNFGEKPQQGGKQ

[2] = tested on: CL1-5 human lung adenocarcinoma cells; experiment: In vitro cytotoxicity (3H-thymidine incorporation), CL1-5; format: cell-based
Experimental: CL1-5 cells were exposed to the indicated concentrations of drugs with or without the addition of human serum albumin to 40 mg/ml. […] Bars show the SD.
(§1) The cancer cell lines were from ATCC except for CL1-5 human lung adenocarcinoma which was generous gift from Dr. PC Yang and EJ human bladder carcinoma cells. See Yang, P. C. et al., Characterization of the mucin differentiation in human lung adenocarcinoma cell lines. American journal of respiratory cell and molecular biology 1992, 7, 161-171; Marshall, C. J. et al., Markers of neoplastic transformation in epithelial cell lines derived from human carcinomas. J Natl Cancer Inst 1977, 58, 1743-51.
(§2) 5000-10000 cells/well in 96 well plate were exposed to graded concentration of the compounds for 48 h in the absence or presence of 40 mg/ml HSA. E. coli β-glucuronidase (1 μg/well) was added with BCC-G in some experiments. The cells were washed twice with PBS and incubated in fresh medium for 24 h before the cells were pulsed with 1 μC/well of ^3H-thimidine for 16 h. Cellular radioactivity in harvested cells was counted on a Topcount scintillation counter and IC50 values were calculated by fitting the data to a sigmoidal dose/response equation.

[3] = Octanol/water partition coefficient; format: physicochemical; details: for Po/w (octanol/water partition coefficient): Buffer pH 4.5
Experimental: Octanol/Water Partition Coefficient
[…] One μg of either BQC or BQC-G was added to a mixture of 250 μl octanol and 250 μl of one of the three water based pre-equilibrated solvents. After mixing for 24 h at RT, the samples were centrifuged 20 min at 10,000×g. Samples of the octanol and water layers were analyzed by HPLC.

[4] = tested on: EJ human bladder carcinoma cells; experiment: In vitro cytotoxicity (3H-thymidine incorporation), EJ; format: cell-based
From the text: as §1, §2

[5] = tested on: CaSki; experiment: In vitro cytotoxicity (3H-thymidine incorporation), CaSki; format: cell-based
Experimental: as §2

[6] = tested on: other cancer cell lines; experiment: In vitro cytotoxicity, other cancer cell lines; format: cell-based
Experimental: as §2

[7] = Water solubility; format: physicochemical
Experimental: […] Mixtures were centrifuged for 40 min at 20,000 g at room temperature. A sample from the water layer was analyzed by HPLC and quantified using standard curves generated with pure BQC and BQC-G.

[8] = tested on: LS174T; experiment: In vitro cytotoxicity (3H-thymidine incorporation), LS174T; format: cell-based
Experimental: as §2

[9] = Stability in blood (human plasma/serum, 37° C., 24 h); format: in vitro ADME; details: 24 h at 37° C.
Experimental: Normal human plasma was spiked with BQC-G to 5 μM. The mixture was incubated 24 h at 37° C. during which time samples were periodically removed and analyzed by SPE-HPLC.

[10] = molecular target: T1, human β-glucuronidase (Homo sapiens, UniProt P08236); experiment: Hydrolysis of BQC-G by human β-glucuronidase; format: biochemical; details: low concentrations of human β-glucuronidase
T1 sequence (P08236 23-651): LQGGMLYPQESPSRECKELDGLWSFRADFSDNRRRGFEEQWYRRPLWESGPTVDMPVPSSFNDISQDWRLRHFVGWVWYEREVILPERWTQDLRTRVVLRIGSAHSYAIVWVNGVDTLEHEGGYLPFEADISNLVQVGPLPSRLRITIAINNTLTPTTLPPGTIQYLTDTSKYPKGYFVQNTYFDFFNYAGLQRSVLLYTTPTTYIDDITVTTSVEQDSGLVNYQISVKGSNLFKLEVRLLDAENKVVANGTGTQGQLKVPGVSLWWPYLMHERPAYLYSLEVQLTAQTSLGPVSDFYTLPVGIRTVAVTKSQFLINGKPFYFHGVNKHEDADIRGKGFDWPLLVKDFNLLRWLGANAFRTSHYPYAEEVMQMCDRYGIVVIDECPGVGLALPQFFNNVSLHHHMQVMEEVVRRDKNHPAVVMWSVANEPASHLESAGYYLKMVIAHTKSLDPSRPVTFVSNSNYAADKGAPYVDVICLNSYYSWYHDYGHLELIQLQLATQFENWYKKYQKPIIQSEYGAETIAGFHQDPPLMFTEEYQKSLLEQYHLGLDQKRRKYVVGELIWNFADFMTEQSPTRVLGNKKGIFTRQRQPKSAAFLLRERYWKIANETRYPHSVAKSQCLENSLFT
From the text: Hydrolysis of BQC-G by β-glucuronidase

[11] = Homo sapiens, CL1-5, CL1-5, +HSA (40 mg/ml)
[12] = Homo sapiens, CL1-5, CL1-5, −HSA

Cc1cc(=O)oc2cc(O[C@@H]3O[C@H](C(=O)O)[C@@H](O)[C@H](O)[C@H]3O)ccc12 [4-MUG, 4-methylumbelliferyl-β-D-glucuronide]
Kcat [1]: 22.2 s⁻¹
Km [1]: 80.2 ± 12.4 µM

CC[C@@]1(O)C(=O)OCc2c1cc1n(c2=O)Cc2cc3c(N)cccc3nc2-1 [9AC, 9-amino-camptothecin]
Cytotoxicity Ratio (IC50 in the presence of HSA to IC50 without HSA) [2]: 140
effect of HSA on cytotoxicity [2]: profound decrease in cytotoxicity
IC50 ([2]; CL1-5, +HSA (40 mg/ml)): 1.37 ± 0.07 µM
IC50 ([2]; CL1-5, −HSA): 0.0098 ± 0.0003 µM

CC[C@@]1(O)C(=O)OCc2c1cc1n(c2=O)Cc2cc3c(NC(=O)OCc4ccc(O[C@@H]5O[C@H](C(=O)O)[C@@H](O)[C@H](O)[C@H]5O)cc4)cccc3nc2-1 [9ACG, 9-amino-camptothecin-glucuronide]
Kcat [1]: 8.6 s⁻¹
Km [1]: 30 µM
Cytotoxicity Ratio (IC50 in the presence of HSA to IC50 without HSA) [2]: >15
IC50 ([2]; CL1-5, +HSA (40 mg/ml)): > 10 µM
IC50 ([2]; CL1-5, −HSA): 0.65 ± 0.04 µM

CC[C@@]1(O)C(=O)OCc2c1cc1n(c2=O)Cc2c-1nc1ccc(O)c3c1c2CCC3 [BQC, 5,6-dihydro-4H-benzo[de]quinoline-camptothecin]
Cytotoxicity Ratio (IC50 in the presence of HSA to IC50 without HSA) ([2]; CL1-5): 9.5
IC50 ([2]; CL1-5, +HSA (40 mg/ml)): 0.013 µM
IC50 ([2]; CL1-5, −HSA): 0.0014 µM and 0.00137 µM
Po/w (octanol/water partition coefficient) [3]: 1.67
Po/w ([3]; Buffer pH 7.4): 1.46
Po/w ([3]; water): 1.98
IC50 [4]: 0.00178 ± 8e-05 µM
IC50 [5]: 0.00125 ± 5e-05 µM
IC50 [6]: 0.001 to 0.002 µM
Solubility ([7]; Buffer pH 4.5): 0.120 µg/mL (≈ 0.297 µM)
Solubility ([7]; Buffer pH 7.0): 0.200 µg/mL (≈ 0.495 µM)
solubility in water-based buffers ([7]; pH 4.5): 0.125 µg/mL (≈ 0.309 µM)
solubility in water-based buffers ([7]; pH 7.0): 0.2 µg/mL (≈ 0.495 µM)
Solubility ([7]; water): 0.200 µg/mL (≈ 0.495 µM)
IC50 [8]: 0.00131 ± 3e-05 µM

CC[C@@]1(O)C(=O)OCc2c1cc1n(c2=O)Cc2c-1nc1ccc(OCc3ccc(O[C@@H]4O[C@H](C(=O)O)[C@@H](O)[C@H](O)[C@H]4O)c([N+](=O)[O-])c3)c3c1c2CCC3 [BQC-G]
Kcat [1]: 45.1 s⁻¹
Km [1]: 4.6 µM
hydrolysis to the parental aglycone BQC ([1]; low concentrations of E. coli β-glucuronidase): completely hydrolyzed
Cytotoxicity Ratio (IC50 in the presence of HSA to IC50 without HSA) ([2]; CL1-5): 18.4
IC50 ([2]; CL1-5, +HSA (40 mg/ml)): 1.08 µM
IC50 ([2]; CL1-5, in the presence of HSA, hydrolyzed by β-glucuronidase): 0.013 µM
IC50 ([2]; CL1-5, without HSA, β-glucuronidase added): 0.0013 µM
IC50 ([2]; CL1-5, −HSA): 0.058 µM and 0.0587 µM
stability in human serum [9]: only trace amounts of BQC detected
Po/w (octanol/water partition coefficient) [3]: −0.44
Po/w ([3]; Buffer pH 7.4): −1.01
octanol/water partition coefficient ([3]; pH not stated (discussion)): about −1
Po/w ([3]; water): −0.44
IC50 [4]: 0.0448 ± 0.0007 µM
IC50 [5]: 0.0312 ± 0.0005 µM
Solubility ([7]; Buffer pH 7.0): 775 µg/mL (≈ 1060 µM)
solubility in water based buffers ([7]; pH 7.0): 775 µg/mL (≈ 1060 µM)
solubility in water based buffers relative to BQC ([7]; versus BQC): about 4000 fold
IC50 [8]: 0.0246 ± 0.0028 µM
hydrolysis to the parental aglycone BQC [10]: completely hydrolyzed

CC[C@@]1(O)C(=O)OCc2c1cc1n(c2=O)Cc2cc3ccccc3nc2-1 [CPT, camptothecin]
Cytotoxicity Ratio (IC50 in the presence of HSA to IC50 without HSA) ([2]; CL1-5): >146
effect of HSA on cytotoxicity ([2]; CL1-5, in the presence of HSA): drastically reduced
IC50 [2, 11]: > 3 µM
IC50 [2, 12]: 0.0205 ± 0.0013 µM
IC50 ([4]; Homo sapiens): 0.021 ± 0.0039 µM
IC50 ([5]; Homo sapiens, Ca-Ski): 0.02 ± 0.0021 µM
IC50 ([8]; Homo sapiens): 0.0097 ± 0.0008 µM

O=C(O)[C@H]1O[C@@H](Oc2ccc([N+](=O)[O-])cc2)[C@H](O)[C@@H](O)[C@@H]1O [PNPG, p-nitrophenol β-D-glucuronide]
Kcat [1]: 173 s⁻¹
Km [1]: 490 ± 84 µM

CCc1c2c(nc3ccc(O)cc13)-c1cc3c(c(=O)n1C2)COC(=O)[C@]3(O)CC [SN-38]
Cytotoxicity Ratio (IC50 in the presence of HSA to IC50 without HSA) [2]: 9.1
IC50 ([2]; CL1-5, +HSA (40 mg/ml)): 0.0479 ± 0.0019 µM
IC50 ([2]; CL1-5, −HSA): 0.00525 ± 8e-05 µM

CC[C@@]1(O)C(=O)OCc2c1cc1n(c2=O)Cc2cc3c(CN(C)C)c(O)ccc3nc2-1 [topotecan]
IC50 [2, 11]: 0.0284 ± 0.0007 µM
IC50 [2, 12]: 0.0278 ± 0.0003 µM
